Results published in patent US9018142B2, “Oil-field biocide method utilizing a peracid” (PeroxyChem LLC, priority 2008, dated 2015).

Tested on: Desulfotomaculum nigrificans (ATCC 19858)
Experiment: D. nigrificans growth after biocide exposure in 0.1 wt % polyacrylamide
Format: cell-based
Parameters: key to D. nigrificans Growth Results / D. nigrificans Growth Results, Neutral Control: positive (+); negative (NEG)
Experimental: Example 2 illustrates the biocidal efficacy of peracetic acid, compared with glutaraldehyde, against another strain of sulfur-reducing bacteria, Desulfotomaculum nigrificans, present in an aqueous solution also containing 0.1 wt % polyacrylamide polymer. A range of peracetic acid and glutaraldehyde concentrations were evaluated for biocidal efficacy: 1, 5, 10, 25, 50, 75, 100, 200 and 300 ppm peracetic acid and the same concentrations for glutaraldehyde (except that 300 ppm was omitted).
The dilute aqueous polyacrylamide was prepared using an aqueous 50 wt % polyacrylamide solution (Sigma-Aldrich, St. Louis, Mo.) and diluting the polyacrylamide with deionized water to obtain 0.1 wt % polyacrylamide in water. The peracetic acid was Vigor Ox® SP-15 antimicrobial agent, containing about 15-17 wt % peracetic acid, 9-11 wt % hydrogen peroxide and 33-38 wt % acetic acid in water (FMC Corporation, Philadelphia, Pa.), and this peracetic acid solution was diluted to the desired concentration within the range 1 to 300 ppm peracetic acid for the various evaluations. The glutaraldehyde used in this Example 2 was a 50 wt % glutaraldehyde solution in water (Alfa Aesar, Ward Hill, Mass.), diluted with deionized water to the desired concentration within the range 1 to 200 ppm for the evaluations.
The bacterial strain used in this Example 2 was the sulfur-reducing bacterium Desulfotomaculum nigrificans (ATCC 19858 from American Type Culture Collection, Manassas, Va.). A working inoculum for each of the three studies described below was prepared by the following procedure. Baar's medium for sulfate reducers was inoculated with D. nigrificans from a cryogenic tube, grown at 50° C. anaerobically for a period sufficient to observe good growth of the culture (evident by blackening of the tube), between 2-7 days. This D. nigrificans culture was used as the working inoculum for each of the studies described below.
The methodology used in this Example 2 was as follows. A sterilized screw-cap tube containing 9.5-10 ml 0.1 wt % polyacrylamide was dosed with an appropriate amount of peracetic acid (or glutaraldehyde) to provide the desired peracetic acid (or glutaraldehyde) concentration (e.g., 1 to 300 ppm peracetic acid) in 10 ml 0.1 wt % polyacrylamide required for the study. The tubes were then vortex mixed and 0.1 ml D. nigrificans inoculum was added and again vortex mixed. The initial inoculation level was estimated as about 2.6×10^6 CFU/tube. Timing of the exposure period (e.g., 1 minute to 1 day) was begun when the D. nigrificans inoculum was added.
After the exposure period had elapsed, 1 ml of the treated mixture was added to a second tube containing 9 ml of Dey-Engley (D/E) neutralizing broth and vortex mixed. After about 5-8 minutes had elapsed, 1 ml of the neutralized solution was added to yet another tube containing 9 ml of Baar's modified medium for sulfate reducers. This tube was vortex mixed and then incubated anaerobically at 50° C., with the screw cap loosened, using an AnaeroPack (Mitsubishi Gas Chemical America, Inc., New York, N.Y.) in an anaerobic jar.
Growth controls were also carried out in the studies of this Example 2, using the following procedure. A screw-cap tube containing 10 ml of 0.1 wt % polyacrylamide was inoculated with 0.1 ml of D. nigrificans culture and then diluted in D/E neutralizing broth after the exposure period, vortex mixed, and then diluted in Baar's medium as described above. The control tubes were incubated at 50° C., also as described above, and monitored for growth after two days.
Neutralizing controls were also carried out for the peracetic acid and glutaraldehyde treatment agents to confirm that D/E neutralizing broth (which contains sodium bisulfite and […] among its neutralizing agents) was capable of neutralizing either peracetic acid or glutaraldehyde at the highest concentration used in each study. […]

O=CCCCC=O [Glutaraldehyde, glutaraldehyde, reference compound]
D. nigrificans Growth Results (first study, 1 ppm, 1 minute exposure): +
D. nigrificans Growth Results (first study, 1 ppm, 1 hour exposure): +
D. nigrificans Growth Results (first study, 1 ppm, 1 day exposure): +
D. nigrificans Growth Results (first study, 5 ppm, 1 minute exposure): +
D. nigrificans Growth Results (first study, 5 ppm, 1 hour exposure): +
D. nigrificans Growth Results (first study, 5 ppm, 1 day exposure): +
D. nigrificans Growth Results (first study, 10 ppm, 1 minute exposure): +
D. nigrificans Growth Results (first study, 10 ppm, 1 hour exposure): +
D. nigrificans Growth Results (first study, 10 ppm, 1 day exposure): +
D. nigrificans Growth Results (first study, 25 ppm, 1 minute exposure): +
D. nigrificans Growth Results (first study, 25 ppm, 1 hour exposure): +
D. nigrificans Growth Results (first study, 25 ppm, 1 day exposure): +
D. nigrificans Growth Results, Neutral Control (first study, 50 ppm biocide neutralized in D/E neutralizing broth before inoculation): +
D. nigrificans Growth Results (first study, 50 ppm, 1 minute exposure): +
D. nigrificans Growth Results (first study, 50 ppm, 1 hour exposure): +
D. nigrificans Growth Results (first study, 50 ppm, 1 day exposure): +
biocidal control of D. nigrificans (first study, any of the concentrations (1 to 50 ppm) or exposure times (1 minute, 1 hour, 1 day)): no biocidal control
D. nigrificans Growth Results (second study, 50 ppm, 10 minutes exposure): +
D. nigrificans Growth Results (second study, 50 ppm, 1 hour exposure): +
D. nigrificans Growth Results (second study, 50 ppm, 1 day exposure): +
D. nigrificans Growth Results (second study, 75 ppm, 10 minutes exposure): +
D. nigrificans Growth Results (second study, 75 ppm, 1 hour exposure): +
D. nigrificans Growth Results (second study, 75 ppm, 1 day exposure): +
D. nigrificans Growth Results (second study, 100 ppm, 10 minutes exposure): +
D. nigrificans Growth Results (second study, 100 ppm, 1 hour exposure): +
D. nigrificans Growth Results (second study, 100 ppm, 1 day exposure): +
D. nigrificans Growth Results, Neutral Control (second study, 200 ppm biocide neutralized in D/E neutralizing broth before inoculation): +
D. nigrificans Growth Results (second study, 200 ppm, 10 minutes exposure): +
D. nigrificans Growth Results (second study, 200 ppm, 1 hour exposure): +
D. nigrificans Growth Results (second study, 200 ppm, 1 day exposure): +
biocidal control of D. nigrificans (second study, any of the concentrations (50 to 200 ppm) or exposure times (10 minutes, 1 hour, 1 day)): no biocidal control
